# Reference: patent US9504676B2, “Molecules inhibiting a metabolic pathway involving the Syk protein tyrosine kinase and method for identifying said molecules” (CENTRE NATIONAL DE LA RECHERCHE SCIENTIFIQUE, priority 2008, dated 2016)
# System: BMMC cells
# Test: C-13 toxicity test on BMMC cells (Annexin-V and Propidium Iodide)
# Format: cell-based
# Conditions: mouse
# Protocol: FIG. 10. Toxicity test of C-13 on BMMC cells. The BMMC cells were incubated at 37° C. in the presence of 2.5 μM or 5 μM of C-13, 0.25% DMF or Staurosporine. The percentages of live BMMC cells after 3 hours and after 5 days were detected by means of double Annexin-V and Propidium Iodide labelling. The viability of BMMC cells incubated in the presence of 2.5 μM or 5 μM of C-13 or 0.25% DMF was not affected to noteworthy degree after 3 hours (78%, 74% and 79% respectively) or five days (62, 56 and 57%, respectively). On the other hand, the viability of BMMC cells treated under the same conditions with Staurosporine was reduced to a level of 16% after only 3 hours.
# • 1) Chemical products and antibodies. A chemical bank of 3000 molecules (a varied subset) was acquired from ChemBridge, Inc. (San Diego, Calif.). Stocks of solutions of small molecules were prepared at a rate of 10 mM in DMSO (dimethylsulphoxide), except for C-13 (methyl 2-{5-[(3-benzyl-4-oxo-2-thioxo-1,3-thiazolidin-5-ylidene)methyl]-2-furyl}benzoate, ChemBridge ID No. 6197026) prepared in DMF (dimethylformamide). Unless specified otherwise, all the reagents were supplied by Sigma. Dinitrophenyl (DNP) hapten was acquired from Calbiochem. Sepharose GammaBind G and all the secondary antibodies were supplied by GE Health Amersham Biosciences. The anti-Syk, anti-Lyn, anti-Btk, anti-PLC-γ1, anti-PLC-γ2, anti-LAT, anti-SLP-76, anti-p38, anti-JNK, anti-Vav, anti-Akt1 and 9E10 antibodies conjugated with HRP were acquired from Santa Cruz Biotechnology. The anti-phospho-p44/42 MAP Kinase, anti-p44/42 MAP Kinase, anti-phospho-p38, anti-phospho-JNK, anti-phospho-Akt1 antibodies were acquired from Cell Signaling. The anti-phospho-LAT and anti-phospho-PLC-γ1 antibodies were supplied by Biosource and the anti-phospho-SLP-76 antibodies by BD Pharmingen. The 4G10 anti-phosphotyrosine monoclonal antibody was acquired from Upstate Biotechnology. • 2) ADA method: ELISA type high-speed molecule screening test, based on antibody displacement (WO 2005106481). The recombinant fusion protein GST:Syk 6-242^8 comprising the residues 6 to 242 of murine Syk tyrosine kinase protein illustrated in FIG. 8B (SEQ ID No. 4) was immobilised on an ELISA plate at a final concentration of 10 μg ml^−1. For the screening of the chemical molecule bank, the small molecules, diluted in PBS at a final concentration of 10 μM were added to the wells for one hour at ambient temperature, before adding the fragment scFv G4G11 at a final concentration of 100 nM for an additional hour. The binding of G4G11 with Syk was assessed by adding the 9E10 monoclonal antibody conjugated with HRP detecting the amino acid sequence EQKLISEEDLN of human c-myc protein located at the C-terminal end of the scFv fragment. To generate Syk mutants, targeted mutagenesis was used on GST:Syk 6-242 protein and the binding of G4G11 with the mutants was assessed in the presence of 5 μM of C-13. • 3) Cells, culture conditions and functional tests. Anti-DNP 2682-I mouse monoclonal antibody was used as the culture supernatant of hybridomas containing 1 μg/ml of IgE. Femoral bone marrow cells were sampled and cultured in Opti-MEM medium (Gibco) supplemented with 10% foetal calf serum and 4% X63 transfectant supernatant secreting murine IL-3. RBL-2H3 (ATCC) leukaemic rat basophil cells were maintained in a single-layer culture in RPMI 1640 medium supplemented with 10% foetal calf serum (Gibco). […]
smiles,measurement,setting,value
"COC(=O)c1ccccc1-c1ccc(/C=C2/SC(=S)N(Cc3ccccc3)C2=O)o1 [Molecule C-13, methyl 2-{5-[(3-benzyl-4-oxo-2-thioxo-1,3-thiazolidin-5-ylidene)methyl]-2-furyl}benzoate]",percentage of live BMMC cells,"3 h, 2.5 μM",78%
same,percentage of live BMMC cells,"3 h, 5 μM",74%
same,percentage of live BMMC cells,"5 days, 2.5 μM",62%
same,percentage of live BMMC cells,"5 days, 5 μM",56%
